According to US8969572B2, “Process for preparing tetrazole-substituted anthranilamide derivatives and novel crystal polymorphs of these derivatives” (Bayer Cropscience AG, priority 2010, dated 2015):

Key:
[1] = thermodynamic stability of the crystal polymorph; type: physicochemical
Excerpt: The compound of the formula (I-1) is known from WO2010/069502. To date, only one crystal form of the compound 1-(3-chloropyridin-2-yl)-N-[4-cyano-2-methyl-6-(methylcarbamoyl)phenyl]-3-{[5-(trifluoromethyl)-2H-tetrazol-2-yl]methyl}-1H-pyrazole-5-carboxamide of the formula (I-1) was known, which is referred to hereinafter as polymorph A. Polymorph A has a characteristic x-ray powder diffractogram, Raman spectrum and IR spectrum (Tab. 1-2, FIGS. 2, 3, 5).

[2] = cited from earlier work

SMILES	thermodynamic stability of crystal polymorph [1]	pKa [2]
CNC(=O)c1cc(C#N)cc(C)c1NC(=O)c1cc(Cn2nnc(C(F)(F)F)n2)nn1-c1ncccc1Cl [Polymorph A, 1-(3-chloropyridin-2-yl)-N-[4-cyano-2-methyl-6-(methylcarbamoyl)phenyl]-3-{[5-(trifluoromethyl)-2H-tetrazol-2-yl]methyl}-1H-pyrazole-5-carboxamide]	thermodynamically metastable	–
FC(F)(F)c1nnn[nH]1 [5-Trifluoromethyltetrazole]	–	1.14
